This note sets out measurements from paper PMC10394673, “Module walking using an SH3-like cell-wall-binding domain leads to a new GH184 family of muramidases” (Acta Crystallographica. Section D, Structural Biology, 2023).

Peptide text beside a SMILES is read from it.

Test [1] concerns the target T1, TsCWBD (Trichophaea saccata, UniProt A0AA82WPC9).
T1 construct: isolated N-terminal SH3-like CWBD, residues 1-73 of the 245-residue GH24 muramidase, about 10 kDa, recombinant; no catalytic domain
T1 sequence (A0AA82WPC9 1-73): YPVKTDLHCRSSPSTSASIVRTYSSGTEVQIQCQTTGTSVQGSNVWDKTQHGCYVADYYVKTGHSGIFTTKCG
The experiment in a line: nanoDSF thermal shift. The class given is binding. Particulars: pH 8.5; Chelex-treated and untreated protein.

Test [2] deals with T1, TsCWBD. The experiment in a line: X-ray crystal structure, […] A. To be noted: co-crystallized with 10 mM triglycine, pH 8.5; canonical SH3 specificity zone (Asp6, His8, Arg10); zinc-bridged crystal contact. The class given is binding.

As to `NCC(=O)NCC(=O)NCC(=O)O` [triglycine] (H-Gly-Gly-Gly-OH), the thermal shift entry on TsCWBD [1] was “the thermal shift is present for both treated and untreated samples, implying ligand binding”. Moreover, at TsCWBD [2], the “X-ray crystal structure, 1.18 A” value is recorded as “The triglycine in our structure is bound within the canonical specificity zone”.
